This is an account of results in US5721207A, “Method for treatment of pain” (Innapharma, Inc., priority 1995, dated 1998).

Read-outs that look alike come from different tables or passages of the source. Ends that are not written are not given here. Bounds are passed on as bounds.

For experiment [1], the system named is rat.
Description: Intrathecal catheters were surgically implanted in the rats after application of anesthetic (Nembutal, 30 mg/kg, intraperitoneal) 5-7 days prior to the test procedure. The 5-7 day period prior to testing allowed for full recovery from the surgical procedures. […] Each catheter was anchored to the skull with cyanoacrylate adhesive, and the skull was closed with wound clips. The free end of each catheter was heat annealed; when compositions were to be injected via the intrathecal route each composition was introduced therein using a Hamilton needle inserted into the sealed catheter.
Pain sensitivity was assessed using a standard analgesiometric hot plate test (Woolfe and MacDonald (1944) J. Pharmacol. Exp. Ther. 80:300). The hot plate response was determined by placing a rat on a 55° C. copper hot plate enclosed in a plexiglass cylinder.
Because of the technical demands of these experiments, no more than 8-9 rats were tested on a given day. Sufficient animals were studied to obtain 10-11 evaluable rats per test condition. On the study day, animals were tested for baseline hot plate responses, and then received bolus injections of test analgesic or physiological saline (control). Hot plate responses were assessed again at 15 min, 30 min, 1 hr, 3 hr, 6 hr and 24 hr after intrathecal injection of test compound or vehicle control.
Ninety-six (96) rats, ranging in weight from 320 g to 420 g, were used in this study. Catheters were implanted and recovery was allowed for as described hereinabove. […] Drug or saline vehicle doses were administered using Hamilton needles inserted into the catheters, with a dose volumes of 37.5 μL/kg followed by a 10 μL saline catheter wash-out. Baseline (pre-drug) and responses at 15 min, 30 min, 1 hr, 3 hr, 6 hr and 24 hr after drug or vehicle injection were determined.
For experiment [2] the following is noted: epidural administration; cited from earlier work.

As for `CN1CC[C@]23c4c5ccc(O)c4O[C@H]2[C@@H](O)C=C[C@H]3[C@H]1C5.O=S(=O)(O)O` [Morphine, Morphine sulfate], the “Hot Plate Latency (Mean ± SEM)” value was found to be 12.81 ± 1.23 s in experiment [1] (37.5 μg/kg (49.42 nmol/kg) intrathecal single, 0 hr (baseline)); 22.08 ± 2.68 s in experiment [1] (37.5 μg/kg (49.42 nmol/kg) intrathecal single, 0.25 hr); 20.97 ± 2.56 s in experiment [1] (37.5 μg/kg (49.42 nmol/kg) intrathecal single, 0.5 hr); 21.81 ± 2.46 s in experiment [1] (37.5 μg/kg (49.42 nmol/kg) intrathecal single, 1 hr); 19.97 ± 2.05 s in experiment [1] (37.5 μg/kg (49.42 nmol/kg) intrathecal single, 3 hr); 14.02 s in experiment [1] (37.5 μg/kg (49.42 nmol/kg) intrathecal single, 6 hr). The “Hot Plate Latency (Mean ± SEM)” value amounted to 11.33 ± 1.51 s in experiment [1] (37.5 μg/kg (49.42 nmol/kg) intrathecal single, 24 hr); 13.76 ± 1.27 s in experiment [1] (75.0 μg/kg (98.84 nmol/kg) intrathecal single, 0 hr (baseline)); 22.76 ± 2.43 s in experiment [1] (75.0 μg/kg (98.84 nmol/kg) intrathecal single, 0.25 hr); 21.86 ± 2.25 s in experiment [1] (75.0 μg/kg (98.84 nmol/kg) intrathecal single, 0.5 hr); 19.88 ± 2.04 s in experiment [1] (75.0 μg/kg (98.84 nmol/kg) intrathecal single, 1 hr); 17.42 ± 1.93 s in experiment [1] (75.0 μg/kg (98.84 nmol/kg) intrathecal single, 3 hr). Moreover, the “Hot Plate Latency (Mean ± SEM)” value in experiment [1] (75.0 μg/kg (98.84 nmol/kg) intrathecal single, 6 hr) was 17.66 s; in experiment [1] (75.0 μg/kg (98.84 nmol/kg) intrathecal single, 24 hr), 12.60 ± 1.19 s; in experiment [1] (125.0 μg/kg (164.73 nmol/kg) intrathecal single, 0 hr (baseline)), 13.28 ± 1.35 s; in experiment [1] (125.0 μg/kg (164.73 nmol/kg) intrathecal single, 0.25 hr), 19.4 ± 1.6 s; in experiment [1] (125.0 μg/kg (164.73 nmol/kg) intrathecal single, 0.5 hr), 26.36 ± 4.20 s; in experiment [1] (125.0 μg/kg (164.73 nmol/kg) intrathecal single, 1 hr), 26.83 ± 3.04 s. Also, the “Hot Plate Latency (Mean ± SEM)” value in experiment [1] (125.0 μg/kg (164.73 nmol/kg) intrathecal single, 3 hr) is 21.69 ± 3.62 s; in experiment [1] (125.0 μg/kg (164.73 nmol/kg) intrathecal single, 6 hr), 15.86 s; in experiment [1] (125.0 μg/kg (164.73 nmol/kg) intrathecal single, 24 hr), 13.49 s. Besides, the “onset of antinociception/analgesia post-injection” value in experiment [1] (intrathecal, all tested doses) was at most 15 min. Further, in experiment [1] (intrathecal, all three doses (37.5, 75.0, 125.0 μg/kg)), the “dose relation of hot plate latency” value was “increased hot plate latency in a dose-related fashion”. In experiment [1] (intrathecal, doses used in this study), the “peak levels of analgesia compared with elcatonin” value is given as “generally lower”. Also, in experiment [1] (intrathecal, post-injection, particularly lower doses), the “time of return toward baseline hot plate scores” value is at most 6 h.

As for “salmon calcitonin: salmon calcitonin, sequence given as SEQ ID No 4 (CSNLSTCVLGKLSQELHKLQTYPRTNTGSGTP; ends and bridges not checked; cysteine pairing not given here)”, in experiment [2], the “use as an analgesic in intractable pain” value was “the data did not appear to support its use as an analgesic”.
